Measured values as given in US12678403B2, “Pharmaceutical composition for preventing or treating obesity or non-alcoholic fatty liver containing Polygalin C as active ingredient” (UNIVERSITY-INDUSTRY COOPERATION GROUP OF KYUNG HEE …, priority 2021, dated 2026).

Tests used:
HepG2 cells [1] = assay: MTT assay, cell viability in NEFA-treated fatty liver-induced HepG2 cell model; assay type: cell-based, human; settings: 1 mM NEFA with 50 µM PC, 24 hours
Description: (§1) HepG2 cells were inoculated into a 6-well plate in a density of 3×10^5 cells/well and incubated for one day. Then, for fatty liver induction, an FBS-free RPMI medium supplemented with 1% bovine serum albumin (BSA) and NEFA (0.66 mM oleic acid and 0.33 mM palmitic acid) was treated, followed by incubation for 24 hours. When treated with PC (0-50 μM), fatty liver induction medium was treated together for incubation for 24 hours.
(§2) HepG2 hepatocytes were inoculated into a 96-well cell culture plate by 1×10^4 cells/well and incubated overnight. Then, for 24 hours, they were replaced with fatty liver induction media including different concentrations of PC (0, 5, 10, 25, 50, and 100 μM).
(§3) After PC treatment, cells were incubated with MTT solution (0.5 mg/ml dissolved in PBS) for 2 hours. After incubation, the medium in each well was removed, and dimethyl sulfoxide was added to dissolve the precipitated formazan. When formazan was completely dissolved, the absorbance was measured at 540 nm using a microplate reader (Bio-Rad) to determine cell viability.
To determine the preventive and therapeutic effects of PC in fatty liver-induced cell models, treatment of 1 mM NEFA as well as various concentrations of PC (0, 5, 10, 25, 50 μM) were performed for 24 hours, and then MTT assay was used to determine cell viability.

PPARγ [2] = assay: Real-time PCR, PPARγ mRNA in 3T3-L1 adipocytes; assay type: cell-based, mouse; settings: vs fully differentiated adipocytes
Description: (§4) 3T3-L1 cells were inoculated into a 6-well plate in a density of 8×10^4 cells/well, and the medium was replaced until the confluence is satisfied. For differentiation, cells were incubated in differentiation media (0.5 mM IBMX, 0.5 μM dexamethasone, and 1 μg/mL insulin). The medium was then replaced with a maintenance culture including 1 μg/mL insulin and PC (0-50 μM) once every 2 days.
(§5) Cells were treated with Ribo-Ex to extract RNA using GeneAll Hybrid-R RNA purification kit (GeneAll, Seoul, Korea). RNA was quantified using NanoDrop (Thermo Fisher Scientific). Amplification of complementary DNA was performed at 45° C. for 60 minutes and 95° C. for 15 minutes using a Maxime RT premix (iNtRON Biotechnology, South Korea). Real-time quantitative PCR was performed using the Universal SYBR Green Master Mix (Applied Biosystems, Foster City, CA, USA). Real-time PCR was performed on Applied Biosystems StepOne System (Applied Biosystems). In this study, relative target gene expression was quantified relatively to gene expression of glyceraldehyde 3-phosphate dehydrogenase to determine mRNA expression levels.
(§6) To investigate how PC inhibits adipose tissue generation in 3T3-L1 cells, investigation was performed on protein expression levels of key adipose tissue generation markers. C/EBPα and PPARγ are well-known major transcription factors in adipose tissue generation. […]

COX-2 = assay: Western blotting, COX-2 in NEFA-induced fatty liver HepG2 cells; assay type: cell-based, human; settings: NEFA-treated HepG2 cells
Description: as §1
(§7) Cell lysis buffer (Cell Signaling Technology) was used to lyse cells. The reagent for Bio-Rad protein assay was used to measure protein concentrations for Bradford assay. Each sample was separated by sodium dodecyl sulfate polyacrylamide gel electrophoresis using 8% acrylamide gel and then electrotransferred to a nitrocellulose membrane. The membrane was blocked with 3% bovine serum albumin (BSA) in Tris buffered saline/Tween 20 (TBS-T) at 4° C. for 1 hour and incubated overnight at 4° C. with COX-2, C/EBPα, PPARγ, SREBP1c, FAS, p-ACC, t-ACC, p-AMPK, t-AMPK (1:2000), and β-actin (1:10,000) antibodies. The membrane was extensively washed with TBS-T at 3 or more times for 30 minutes and incubated with goat anti-rabbit IgG-horseradish peroxidase (HRP) and goat anti-mouse IgG-HRP (1:10,000 all in TBS-T) secondary antibodies for 1 hour.
It is known that if the symptoms persist in the fatty liver stage, it causes an inflammatory reaction to develop steatohepatitis. […]

Akt = assay: Western blotting, activated Akt in MDI-induced adipocytes; assay type: cell-based, mouse
Description: as §4, §7
(§8) Next, MAPK and Akt signaling in adipocytes in the presence of PC were investigated by Western Blotting.

3T3-L1 cells [3] = assay: Oil Red O staining, adipocyte differentiation / lipid accumulation in 3T3-L1 preadipocytes; assay type: cell-based, mouse; settings: 3T3-L1 cells differentiated with PC 0, 25, 50 μM; vs fully differentiated adipocytes
Description: as §4
(§9) The treated cells were washed with PBS and fixed with 10% formalin for 1 hour. The cells were then washed with 60% isopropanol and dried completely. A 60% Oil Red O working solution diluted in distilled water (DW) was added to the cells. In the case of hepatocytes, in order to observe the morphology of the cells, they were additionally treated with hematoxylin for 1 minute for staining. The stained cells were washed with DW 3 times and photographed using the Olympus IX71 microscope (Olympus, Tokyo, Japan). To quantify lipid accumulation, stained cells were dissolved in 100% isopropanol, and measurement was performed at 490 nm with a microplate reader (Bio-Rad).
To investigate whether PC has an inhibitory effect on adipose tissue differentiation, cells were differentiated in the presence and absence of PC at various concentrations (0, 25, and 50 μM), and then Oil red O staining was used. […] Thus, PC reduced accumulation of lipids in 3T3-L1 cells during adipose tissue generation differentiation.

C/EBPα [4] = assay: Western blotting, C/EBPα protein in MDI-induced 3T3-L1 adipocytes; assay type: cell-based, mouse; settings: vs MDI-induced group
Description: as §4, §7
(§10) To investigate how PC inhibits adipose tissue generation in 3T3-L1 cells, investigation was performed on protein expression levels of key adipose tissue generation markers. […]

C/EBPα [5] = assay: Real-time PCR, C/EBPα mRNA in 3T3-L1 adipocytes; assay type: cell-based, mouse; settings: vs fully differentiated adipocytes
Description: as §4, §5, §6

ACC1 = assay: Western blotting, ACC1 in NEFA-induced fatty liver HepG2 cells; assay type: cell-based, human; settings: dose-dependently, vs NEFA-induced fatty liver cells
Description: as §1, §7
(§11) Due to treatment of free fatty acids such as NEFA, fatty liver is induced by fat accumulation. […]

HepG2 cells [6] = assay: Oil Red O staining, fat accumulation in fatty liver-induced HepG2 cells; assay type: cell-based, human; settings: PC 0, 25, 50 μM, vs cells solely treated with NEFA
Description: as §1, §9
To investigate whether PC has an inhibitory effect on fat accumulation, cells were treated in the presence and absence of PC at various concentrations (0, 25, and 50 μM), using Oil red O staining. […] Thus, PC reduced accumulation of lipid in fatty liver-induced HepG2 cells.

C/EBPβ = assay: Real-time PCR, C/EBPβ mRNA in 3T3-L1 adipocytes; assay type: cell-based, mouse; settings: vs adipocytes
Description: as §4, §5
(§12) In order to additionally identify expression of other adipose tissue generation markers such as C/EBPβ and C/EBPδ, mRNA levels of these markers were examined.

ACC = assay: Western blotting, ACC phosphorylation in 3T3-L1 adipocytes; assay type: cell-based, mouse
Description: as §4, §7
(§13) The MAPK/Akt and AMPK/ACC signaling pathways are involved in the general steps of adipose tissue generation. […]

FAS [7] = assay: Western blotting, FAS in NEFA-induced fatty liver HepG2 cells; assay type: cell-based, human; settings: dose-dependently, vs NEFA-induced fatty liver cells
Description: as §1, §7, §11

MAPK kinase = assay: Western blotting, activated MAPK kinase in MDI-induced adipocytes; assay type: cell-based, mouse; settings: MDI-induced adipocytes (ERK, JNK, p38)
Description: as §4, §7, §8

HepG2 cells [8] = assay: MTT assay, cytotoxicity of PC and NEFA in HepG2 cells; assay type: cell-based, human; settings: 0-100 μM PC, 24 hours
Description: as §2, §3
In order to identify cytotoxicity of PC and NEFA in HepG2 cells, various concentrations of PC (0, 5, 10, 25, 50, and 100 μM) or NEFA (0, 0.5, 1, and 2 mM) were treated for 24 hours, and then MTT assay was used to determine cell viability.

AMPK = assay: Western blotting, AMPK phosphorylation in 3T3-L1 adipocytes; assay type: cell-based, mouse
Description: as §4, §7, §13

SREBP1c [9] = assay: Western blotting, SREBP1c protein in 3T3-L1 adipocytes; assay type: cell-based, mouse; settings: dose-dependently, vs fully differentiated adipocytes
Description: as §4
as §7, with “hour. […]” for “hour.”

FAS [10] = assay: Western blotting, FAS protein in 3T3-L1 adipocytes; assay type: cell-based, mouse; settings: dose-dependently, vs fully differentiated adipocytes
Description: as §4
as §7, with “hour. […]” for “hour.”

SREBP1c [11] = assay: Immunofluorescence analysis, SREBP1c in MDI-induced adipocytes; assay type: cell-based, mouse
Description: The cells were treated with or without PC in a 4-well confocal dish. After treatment, the cells were fixed with 10% formalin for 10 minutes, treated with 0.2% Triton X diluted in PBS for 20 minutes, washed with PBS 3 times, and blocked with 5% BSA dissolved in PBS for 1 hour. Next, cells were incubated overnight in the presence of anti-SREBP1 antibodies (1:500 in PBS) at 4° C., followed by incubation in the presence of Alexa Fluor-555 antibody for 1 hour at room temperature. The cell nucleus was stained with 4,6-diamidino-2-phenylindole (DAPI: Sigma-Aldrich) at room temperature for 3 minutes. DAPI-stained cells were washed with PBS for 30 minutes, and fluorescence was observed using CELENA™ S Digital Imaging System (Logos Biosystems, Inc.).
In order to determine whether the PC inhibits the adipogenic factors, the degree of expression of the adipogenic factors was examined through Western blotting and real-time PCR. FAS and SREBP1 play an important role in adipogenesis, protein expression levels of which were investigated. […] In addition, according to FIGS. 3B and 3C, the RNA level was reduced compared to fully differentiated adipocytes.

C/EBPδ = assay: Real-time PCR, C/EBPδ mRNA in 3T3-L1 adipocytes; assay type: cell-based, mouse; settings: vs adipocytes
Description: as §4, §5, §12

SREBP1c [12] = assay: Real-time PCR, SREBP1c RNA in 3T3-L1 adipocytes; assay type: cell-based, mouse; settings: vs fully differentiated adipocytes
Description: as §4, §5
(§14) In order to determine whether the PC inhibits the adipogenic factors, the degree of expression of the adipogenic factors was examined through Western blotting and real-time PCR. FAS and SREBP1 play an important role in adipogenesis, protein expression levels of which were investigated. […]

PPARγ [13] = assay: Western blotting, PPARγ protein in MDI-induced 3T3-L1 adipocytes; assay type: cell-based, mouse; settings: vs MDI-induced group
Description: as §4, §7, §10

3T3-L1 cells [14] = assay: MTT assay, cytotoxicity of PC in 3T3-L1 cells; assay type: cell-based, mouse; settings: 0-100 μM PC, 48 hours
Description: 3T3-L1 preadipocytes were inoculated into a 96-well cell culture plate by 1×10^4 cells/well and incubated overnight. The medium was then replaced with DMEM including different concentrations of PC (0, 5, 10, 25, 50, 75, and 100 μM) for 48 hours.
as §3
In order to identify cytotoxicity of PC in 3T3-L1 cells, various concentrations of PC (0, 5, 10, 25, 50, 75, and 100 μM) were treated for 48 hours, and then cell viability was determined using MTT assay.

FAS [15] = assay: Real-time PCR, FAS RNA in 3T3-L1 adipocytes; assay type: cell-based, mouse; settings: vs fully differentiated adipocytes
Description: as §4, §5, §14

[16] = PC treatment, 3T3-L1 adipocytes
[17] = vs fully differentiated adipocytes

Polygalin C [PC]
cell viability (MTT) in NEFA-treated cells (HepG2 cells [1]): cell viability was restored | mRNA expression level of PPARγ (PPARγ [2]): reduced | expression of COX-2 induced by NEFA treatment (COX-2): reduced concentration-dependently | expression level of activated Akt (Akt): significantly reduced dose-dependently | production of lipid droplets (Oil red O) (3T3-L1 cells [3]): dose-dependently inhibited | relative protein level of C/EBPα (C/EBPα [4]): decreased dose-dependently | mRNA expression level of C/EBPα (C/EBPα [5]): reduced | expression level of ACC1 (ACC1): significantly reduced | production of lipid droplets (Oil red O) (HepG2 cells [6]): dose-dependently inhibited | mRNA level of C/EBPβ (C/EBPβ): decreased concentration-dependently | total ACC expression level (ACC; [16]): unchanged | phosphorylation of ACC (ACC; [17]): significantly increased | expression level of FAS (FAS [7]): significantly reduced | expression level of activated MAPK kinase (MAPK kinase): significantly reduced dose-dependently | concentration with non-toxic effect (cell viability, MTT) (HepG2 cells [8]): up to 100 μM | total AMPK expression level (AMPK; [16]): unchanged | phosphorylation of AMPK (AMPK; [17]): significantly increased | protein expression level of SREBP1c (SREBP1c [9]): significantly reduced | protein expression level of FAS (FAS [10]): significantly reduced | MDI-induced SREBP1c expression (immunofluorescence) (SREBP1c [11]): significant relieving effect | mRNA level of C/EBPδ (C/EBPδ): decreased concentration-dependently | RNA level of SREBP1c (SREBP1c [12]): reduced | relative protein level of PPARγ (PPARγ [13]): decreased dose-dependently | concentration with non-toxic effect (cell viability, MTT) (3T3-L1 cells [14]): up to 50 μM | RNA level of FAS (FAS [15]): reduced
